Assays:
Assay in all cases: biochemical
Parameters in all cases: KINOMEscan competition binding panel (Eurofins DiscoverX), single concentration, percent inhibition
Details in all cases: read-out: 15 at 1 µM % inhibition
MYLK = MYLK (Homo sapiens, UniProt Q15746)
Protocol: (§1) KinomeScan® Assay on 7 and 15 was performed as previously described by EuroFins DiscoverX [24]. GSK114 (7) and 15 were submitted for a KINOMEscan® assay to explore the selectivity profile across >400 human kinases at a compound concentration of 1 µM. […] GSK114 (7) is a narrow-spectrum TNNi3K inhibitor but has some potent off-targets including GAK which has been previously reported for this chemotype. […] If utilized together this set of compounds could be useful to investigate TNNi3K biology.

INSR = INSR (Homo sapiens, UniProt P06213)
Protocol: as §1

DCAMKL2 = target: T1, DCAMKL2 (Homo sapiens, UniProt Q8N568)
T1 construct: gene DCLK2
Protocol: as §1

BRSK2 = BRSK2 (Homo sapiens, UniProt Q8IWQ3)
Protocol: as §1

CDKL5 = CDKL5 (Homo sapiens, UniProt O76039)
Protocol: as §1

HUNK = HUNK (Homo sapiens, UniProt P57058)
Protocol: as §1

MRCKB = target: T2, MRCKB (Homo sapiens, UniProt Q9Y5S2)
T2 construct: gene CDC42BPB
Protocol: as §1

CDC2L5 = target: T3, CDC2L5 (Homo sapiens, UniProt Q14004)
T3 construct: gene CDK13
Protocol: as §1

EGFR(L747-T751del,Sins) = EGFR(L747-T751del,Sins) (Homo sapiens, UniProt P00533, DEL747-750/T751S)
Protocol: as §1

ERK5 = target: T4, ERK5 (Homo sapiens, UniProt Q13164)
T4 construct: gene MAPK7
Protocol: as §1

CAMK2D = CAMK2D (Homo sapiens, UniProt Q13557)
Protocol: as §1

YSK4 = target: T5, YSK4 (Homo sapiens, UniProt Q56UN5)
T5 construct: gene MAP3K19
Protocol: as §1

[1] = target: T6, ABL1(Y253F)-phosphorylated (Homo sapiens, UniProt P00519, Y253F)
T6 construct: phosphorylated
Protocol: as §1

SNARK = target: T7, SNARK (Homo sapiens, UniProt Q9H093)
T7 construct: gene NUAK2
Protocol: as §1

[2] = target: T8, RSK2(Kin.Dom.1-N-terminal) (Homo sapiens, UniProt P51812)
T8 construct: gene RPS6KA3; Kin.Dom.1-N-terminal
Protocol: as §1

MST1 = target: T9, MST1 (Homo sapiens, UniProt Q13043)
T9 construct: gene STK4
Protocol: as §1

PIP5K2B = target: T10, PIP5K2B (Homo sapiens, UniProt P78356)
T10 construct: gene PIP4K2B
Protocol: as §1

GSK3A = GSK3A (Homo sapiens, UniProt P49840)
Protocol: as §1

EIF2AK1 = EIF2AK1 (Homo sapiens, UniProt Q9BQI3)
Protocol: as §1

VEGFR2 = target: T11, VEGFR2 (Homo sapiens, UniProt P35968)
T11 construct: gene KDR
Protocol: as §1

[3] = target: T12, RSK2(Kin.Dom.2-C-terminal) (Homo sapiens, UniProt P51812)
T12 construct: gene RPS6KA3; Kin.Dom.2-C-terminal
Protocol: as §1

SYK = SYK (Homo sapiens, UniProt P43405)
Protocol: as §1

ASK1 = target: T13, ASK1 (Homo sapiens, UniProt Q99683)
T13 construct: gene MAP3K5
Protocol: as §1

T11 sequence (P35968 whole entry): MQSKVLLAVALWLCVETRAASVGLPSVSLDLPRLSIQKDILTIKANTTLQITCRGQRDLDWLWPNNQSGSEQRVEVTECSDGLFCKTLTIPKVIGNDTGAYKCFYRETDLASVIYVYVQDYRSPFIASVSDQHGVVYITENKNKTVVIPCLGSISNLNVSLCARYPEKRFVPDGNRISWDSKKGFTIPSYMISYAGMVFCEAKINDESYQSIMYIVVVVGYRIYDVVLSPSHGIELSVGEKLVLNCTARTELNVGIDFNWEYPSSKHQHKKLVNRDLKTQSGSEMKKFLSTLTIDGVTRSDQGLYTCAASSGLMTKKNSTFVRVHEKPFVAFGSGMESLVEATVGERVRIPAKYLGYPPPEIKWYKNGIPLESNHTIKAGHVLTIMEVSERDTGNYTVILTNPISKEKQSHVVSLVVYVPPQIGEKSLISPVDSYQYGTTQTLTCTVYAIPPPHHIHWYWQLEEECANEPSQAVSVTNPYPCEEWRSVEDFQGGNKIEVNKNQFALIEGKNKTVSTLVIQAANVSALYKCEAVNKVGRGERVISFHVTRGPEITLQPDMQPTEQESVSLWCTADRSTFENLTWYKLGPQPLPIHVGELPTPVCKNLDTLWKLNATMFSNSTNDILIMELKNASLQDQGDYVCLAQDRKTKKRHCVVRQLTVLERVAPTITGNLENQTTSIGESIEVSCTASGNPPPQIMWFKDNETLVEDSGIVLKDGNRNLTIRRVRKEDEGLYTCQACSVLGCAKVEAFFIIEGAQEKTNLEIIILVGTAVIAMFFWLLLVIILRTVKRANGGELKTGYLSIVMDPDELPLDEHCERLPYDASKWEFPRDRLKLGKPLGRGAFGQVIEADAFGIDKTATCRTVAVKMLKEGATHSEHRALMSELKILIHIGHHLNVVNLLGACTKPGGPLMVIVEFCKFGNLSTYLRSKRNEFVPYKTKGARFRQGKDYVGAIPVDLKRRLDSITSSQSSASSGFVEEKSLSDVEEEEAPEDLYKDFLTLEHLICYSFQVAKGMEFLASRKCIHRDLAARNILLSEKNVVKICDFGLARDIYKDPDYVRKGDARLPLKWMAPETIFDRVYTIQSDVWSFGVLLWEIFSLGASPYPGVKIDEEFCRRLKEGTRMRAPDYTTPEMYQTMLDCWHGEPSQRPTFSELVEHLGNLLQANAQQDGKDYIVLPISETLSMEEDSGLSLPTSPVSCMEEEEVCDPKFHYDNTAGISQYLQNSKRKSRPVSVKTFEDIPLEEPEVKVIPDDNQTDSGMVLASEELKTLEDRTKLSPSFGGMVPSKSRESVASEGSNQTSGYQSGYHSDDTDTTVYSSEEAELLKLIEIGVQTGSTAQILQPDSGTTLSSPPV
T4 sequence (Q13164 whole entry): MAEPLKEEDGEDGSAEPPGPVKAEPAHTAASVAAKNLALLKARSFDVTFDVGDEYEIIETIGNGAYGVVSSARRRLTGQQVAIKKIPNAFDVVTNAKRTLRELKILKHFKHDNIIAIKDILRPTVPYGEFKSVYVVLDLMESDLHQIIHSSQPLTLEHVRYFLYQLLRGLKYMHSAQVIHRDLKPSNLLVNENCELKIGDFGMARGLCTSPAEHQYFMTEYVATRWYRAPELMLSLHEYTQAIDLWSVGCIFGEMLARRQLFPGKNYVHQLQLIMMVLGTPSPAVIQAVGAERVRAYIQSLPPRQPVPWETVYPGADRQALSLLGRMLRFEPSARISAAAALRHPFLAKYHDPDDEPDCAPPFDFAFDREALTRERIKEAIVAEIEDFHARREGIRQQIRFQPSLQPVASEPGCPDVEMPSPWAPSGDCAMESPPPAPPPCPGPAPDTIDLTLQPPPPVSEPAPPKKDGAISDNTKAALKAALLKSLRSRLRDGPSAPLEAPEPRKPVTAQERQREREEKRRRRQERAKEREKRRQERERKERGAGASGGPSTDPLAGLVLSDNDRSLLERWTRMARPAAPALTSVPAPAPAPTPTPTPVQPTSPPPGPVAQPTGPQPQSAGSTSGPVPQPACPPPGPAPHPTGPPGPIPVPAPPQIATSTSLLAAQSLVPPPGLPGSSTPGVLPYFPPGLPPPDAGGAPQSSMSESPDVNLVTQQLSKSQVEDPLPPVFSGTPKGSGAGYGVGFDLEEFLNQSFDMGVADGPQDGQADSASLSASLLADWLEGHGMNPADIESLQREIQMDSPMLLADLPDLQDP
Sequence of INSR (P06213 whole entry): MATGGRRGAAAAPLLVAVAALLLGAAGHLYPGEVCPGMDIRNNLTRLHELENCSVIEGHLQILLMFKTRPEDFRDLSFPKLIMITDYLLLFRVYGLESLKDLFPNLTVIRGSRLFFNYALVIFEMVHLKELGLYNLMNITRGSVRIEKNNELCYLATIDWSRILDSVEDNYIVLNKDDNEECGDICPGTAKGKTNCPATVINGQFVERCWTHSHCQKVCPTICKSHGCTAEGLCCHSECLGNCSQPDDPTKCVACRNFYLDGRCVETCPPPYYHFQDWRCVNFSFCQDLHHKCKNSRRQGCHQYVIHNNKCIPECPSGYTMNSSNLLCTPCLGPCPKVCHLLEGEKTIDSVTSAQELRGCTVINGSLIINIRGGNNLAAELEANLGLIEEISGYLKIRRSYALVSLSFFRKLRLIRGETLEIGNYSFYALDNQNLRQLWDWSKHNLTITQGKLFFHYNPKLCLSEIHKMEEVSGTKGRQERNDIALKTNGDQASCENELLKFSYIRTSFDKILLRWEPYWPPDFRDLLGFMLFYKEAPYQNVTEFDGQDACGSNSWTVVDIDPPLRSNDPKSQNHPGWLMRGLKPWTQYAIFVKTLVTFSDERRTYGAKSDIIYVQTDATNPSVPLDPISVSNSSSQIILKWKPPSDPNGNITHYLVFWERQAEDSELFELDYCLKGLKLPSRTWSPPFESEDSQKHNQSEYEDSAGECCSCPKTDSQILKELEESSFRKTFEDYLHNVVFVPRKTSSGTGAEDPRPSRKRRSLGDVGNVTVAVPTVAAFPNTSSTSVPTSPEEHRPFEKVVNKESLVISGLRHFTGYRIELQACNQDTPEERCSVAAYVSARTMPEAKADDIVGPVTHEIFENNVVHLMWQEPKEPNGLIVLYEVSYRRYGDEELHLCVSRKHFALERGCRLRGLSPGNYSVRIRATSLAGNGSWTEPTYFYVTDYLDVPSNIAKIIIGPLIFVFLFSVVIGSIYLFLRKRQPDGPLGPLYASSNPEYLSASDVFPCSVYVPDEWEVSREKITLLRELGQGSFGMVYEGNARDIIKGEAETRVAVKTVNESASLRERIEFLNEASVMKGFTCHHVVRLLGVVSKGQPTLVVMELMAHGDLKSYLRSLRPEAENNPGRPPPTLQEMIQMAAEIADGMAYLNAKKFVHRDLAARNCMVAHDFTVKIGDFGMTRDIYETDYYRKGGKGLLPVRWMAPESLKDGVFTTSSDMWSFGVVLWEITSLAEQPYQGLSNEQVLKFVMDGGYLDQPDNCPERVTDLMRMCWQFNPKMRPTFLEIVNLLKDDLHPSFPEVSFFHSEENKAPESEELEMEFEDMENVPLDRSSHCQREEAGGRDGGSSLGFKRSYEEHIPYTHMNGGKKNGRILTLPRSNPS
Sequence of EGFR(L747-T751del,Sins) (P00533 with tags, fused parts or gaps DEL747-750/T751S): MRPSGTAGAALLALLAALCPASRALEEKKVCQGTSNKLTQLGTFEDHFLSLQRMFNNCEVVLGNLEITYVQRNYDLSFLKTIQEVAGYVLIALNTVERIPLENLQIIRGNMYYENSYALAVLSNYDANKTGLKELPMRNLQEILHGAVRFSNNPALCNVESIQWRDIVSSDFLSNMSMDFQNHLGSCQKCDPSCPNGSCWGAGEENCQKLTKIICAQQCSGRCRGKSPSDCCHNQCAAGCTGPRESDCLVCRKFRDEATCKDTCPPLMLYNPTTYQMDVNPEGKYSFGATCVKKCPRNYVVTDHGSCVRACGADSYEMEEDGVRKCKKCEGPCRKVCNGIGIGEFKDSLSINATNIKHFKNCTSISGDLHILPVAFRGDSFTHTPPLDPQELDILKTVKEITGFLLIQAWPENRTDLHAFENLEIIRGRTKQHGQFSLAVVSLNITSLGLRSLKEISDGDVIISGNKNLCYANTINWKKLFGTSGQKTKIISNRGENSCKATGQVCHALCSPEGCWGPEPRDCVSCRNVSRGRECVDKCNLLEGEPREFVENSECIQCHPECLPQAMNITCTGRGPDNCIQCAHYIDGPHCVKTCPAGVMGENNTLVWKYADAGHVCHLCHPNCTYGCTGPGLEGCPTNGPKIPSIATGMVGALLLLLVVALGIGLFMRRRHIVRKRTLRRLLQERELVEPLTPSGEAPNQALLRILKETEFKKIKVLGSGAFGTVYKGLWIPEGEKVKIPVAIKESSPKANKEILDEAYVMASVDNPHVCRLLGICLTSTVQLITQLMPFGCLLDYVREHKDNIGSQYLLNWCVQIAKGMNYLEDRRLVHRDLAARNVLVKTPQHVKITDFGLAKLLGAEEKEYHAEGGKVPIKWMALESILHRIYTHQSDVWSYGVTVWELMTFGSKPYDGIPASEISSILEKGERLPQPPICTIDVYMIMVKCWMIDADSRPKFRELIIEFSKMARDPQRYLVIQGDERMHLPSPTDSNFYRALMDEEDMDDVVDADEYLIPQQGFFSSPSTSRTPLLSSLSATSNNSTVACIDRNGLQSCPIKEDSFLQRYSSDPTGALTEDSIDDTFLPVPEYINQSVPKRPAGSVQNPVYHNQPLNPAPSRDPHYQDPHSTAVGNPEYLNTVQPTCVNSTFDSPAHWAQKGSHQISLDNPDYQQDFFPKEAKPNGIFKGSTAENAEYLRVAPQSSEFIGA

With `CNS(=O)(=O)c1ccc(N(C)C)c(Nc2nc(C)nc3cc(OC)c(OC)cc23)c1` [compound 15, 3-((6,7-dimethoxy-2-methylquinazolin-4-yl)amino)-4-(dimethylamino)-N-methylbenzenesulfonamide] the inhibition at 1 µM (MYLK) was 0%, the inhibition at 1 µM (INSR) was 11% and the inhibition at 1 µM (DCAMKL2) was 0%. The inhibition at 1 µM (BRSK2) was 21%, the inhibition at 1 µM (CDKL5) was 19% and the inhibition at 1 µM (HUNK) was 0%. For the same molecule, the inhibition at 1 µM (MRCKB) was 1%, the inhibition at 1 µM (CDC2L5) was 23% and the inhibition at 1 µM (EGFR(L747-T751del,Sins)) was 0%. It also gave an inhibition at 1 µM (ERK5) of 5%, an inhibition at 1 µM (CAMK2D) of 0% and an inhibition at 1 µM (YSK4) of 0%. For the same molecule, the inhibition at 1 µM [1] was 18%, the inhibition at 1 µM (SNARK) was 18% and the inhibition at 1 µM [2] was 15%. The inhibition at 1 µM (MST1) was 5%, the inhibition at 1 µM (PIP5K2B) was 0% and the inhibition at 1 µM (GSK3A) was 0%. It also gave an inhibition at 1 µM (EIF2AK1) of 4%, an inhibition at 1 µM (VEGFR2) of 12% and an inhibition at 1 µM [3] of 16%. The inhibition at 1 µM (SYK) was 0% and the inhibition at 1 µM (ASK1) was 0%.
